Laboratory results: publication PMC12897534, “Design, synthesis, and antiproliferative activity of new 5-ethylsulfonyl-indazole-3-carbohydrazides as dual EGFR/VEGFR-2 kinases inhibitors” (Journal of Enzyme Inhibition and Medicinal Chemistry, 2025)

Legend:
EGFR = EGFR (Homo sapiens, UniProt P00533); assay: EGFR-TK inhibitory assay; conditions: read-out: EGFR inhibition IC50 ± SEM
Experimental: To record autophosphorylation level, EGFR kinase assay was carried out on the basis of DELFIA/Time-Resolved Fluorometry. […] Each compound (10 μL) was incubated with recombinant enzyme (10 μL, 5 ng for EGFR, 1:80 dilution in 100 mM HEPES) for 10 min at 25 °C, subsequent to the addition of 5X buffer (10 μL, containing 2 mM MnCl2, 100 μM Na3VO4, 20 mM HEPES and 1 mM DTT) and ATP-MgCl2 (20 μL, containing 0.1 mM ATP and 50 mM MgCl2) and incubation for 1h. The negative and positive controls were included in each plate by the incubation of enzyme either with or without ATP-MgCl2. The liquid was removed after incubation and the plates were washed thrice using a wash buffer. The Europium-tagged antiphosphotyrosine antibody (75 μL, 400 ng) was added to each well followed by incubation of 1h and then washing of the plates using buffer. […] The autophosphorylation percentage inhibition by compounds was calculated using the following equation:
The majority of signals detected by antiphosphotyrosine antibody were from EGFR because the enzyme preparation contained low impurities.

[1] = test system: A-549 (lung) cancer cell line; assay: Antiproliferative assay, A-549; format: cell-based, human; conditions: A-549; read-out: Antiproliferative activity IC50 ± SEM, A-549
Experimental: (§1) Table 1 presents the median inhibitory concentration (IC50) and GI50 (mean IC50) for the four cancer cell lines.
(§2) Refer to Appendix A for additional information.
(§3) To explore the antiproliferative potential of compounds propidium iodide fluorescence assay was performed using different cell lines such as Panc-1 (pancreas cancer cell line) [Panc-1-CTC (RRID:CVCL_VQ69)], MCF-7 (breast cancer cell line) [MCF-7 (RRID:CVCL_0031)], HT-29 (colon cancer cell line) [HT-29 (RRID:CVCL_0320)] and A-549 (epithelial cancer cell line)[A-549 (RRID:CVCL_0023)], respectively. All cell lines were obtained from ATCC (American Type Cell Culture).
(§4) To calculate the total nuclear DNA, a fluorescent dye (propidium iodide, PI) is used which can attach to the DNA, thus offering a quick and precise technique. PI cannot pass through the cell membrane and its signal intensity can be considered as directly proportional to quantity of cellular DNA. Cells whose cell membranes are damaged or have changed permeability are counted as dead ones. The assay was performed by seeding the cells of different cell lines at a density of 3000-7500 cells/well (in 200 μl medium) in culture plates followed by incubation for 24 h at 37 °C in humidified 5% CO2 /95% air atmospheric conditions. The medium was removed; the compounds were added to the plates at 10 μM concentrations (in 0.1% DMSO) in triplicates, followed by incubation for 48 h. DMSO (0.1%) was used as control. After incubation, medium was removed followed by the addition of PI (25 μl, 50 μg/mL in water/medium) to each well of the plates. At -80 °C, the plates were allowed to freeze for 24 h, followed by thawing at 25 °C. A fluorometer (Polar-Star BMG Tech) was used to record the readings at excitation and emission wavelengths of 530 and 620 nm for each well. The percentage cytotoxicity of compounds was calculated using the following formula: […]

[2] = test system: Panc-1 (pancreatic) cancer cell line; assay: Antiproliferative assay, Panc-1; format: cell-based, human; conditions: Panc-1; read-out: Antiproliferative activity IC50 ± SEM, Panc-1
Experimental: as §1, §2, §3, §4

[3] = test system: HT-29 (colon) cancer cell line; assay: Antiproliferative assay, HT-29; format: cell-based, human; conditions: read-out: Antiproliferative activity IC50 ± SEM, HT-29
Experimental: as §1, §2, §3, §4

MCF-10A = conditions: 50 µM
Experimental: The viability of the investigated compounds was assessed using the normal human mammary gland epithelial cell line MCF-10A. After four days of incubation on MCF-10A cells with 50 µM of each examined compound, cell viability was assessed using the MTT test[46]^,[47].
The viability of 7a–o was determined using the normal human mammary gland epithelial (MCF-10A) cell line^46,[47].
MTT assay was performed to investigate the effect of the synthesized compounds on mammary epithelial cells (MCF-10A). The cells were propagated in medium consisting of Ham's F-12 medium/ Dulbecco's modified Eagle's medium (DMEM) (1:1) supplemented with 10% foetal calf serum (GIBCO, UK), 2 mM glutamine, insulin (10 μg/mL), hydrocortisone (500 ng/mL) and epidermal growth factor (20 ng/mL). Trypsin ethylenediamine tetra acetic acid (EDTA) was used to passage the cells after every 2-3 days. 96-well flat-bottomed cell culture plates were used to seed the cells at a density of 10^4 cells mL^-1. The medium was aspirated from all the wells of culture plates after 24 h followed by the addition of synthesized compounds (in 200 μL medium to yield a final concentration of 0.1% (v/v) dimethyl sulfoxide) into individual wells of the plates. Four wells were designated to a single compound. The plates were allowed to incubate at 37°C for 96 h. Afterwards, the medium was aspirated and 3-[4,5-dimethylthiazol-2-yl]-2,5-diphenyltetrazolium bromide (MTT) (0.4 mg/mL) in medium was added to each well and subsequently incubated for 3 h. The medium was aspirated and 150 μL dimethyl sulfoxide (DMSO) was added to each well. The plates were vortexed followed by the measurement of absorbance at 540 nm on a microplate reader.

VEGFR-2 = VEGFR-2 (Homo sapiens, UniProt P35968); assay: VEGFR-2 kinase inhibitory assay; conditions: read-out: VEGFR-2 inhibition IC50 ± SEM; kinase assay
Chain of VEGFR-2 (P35968 20-1356): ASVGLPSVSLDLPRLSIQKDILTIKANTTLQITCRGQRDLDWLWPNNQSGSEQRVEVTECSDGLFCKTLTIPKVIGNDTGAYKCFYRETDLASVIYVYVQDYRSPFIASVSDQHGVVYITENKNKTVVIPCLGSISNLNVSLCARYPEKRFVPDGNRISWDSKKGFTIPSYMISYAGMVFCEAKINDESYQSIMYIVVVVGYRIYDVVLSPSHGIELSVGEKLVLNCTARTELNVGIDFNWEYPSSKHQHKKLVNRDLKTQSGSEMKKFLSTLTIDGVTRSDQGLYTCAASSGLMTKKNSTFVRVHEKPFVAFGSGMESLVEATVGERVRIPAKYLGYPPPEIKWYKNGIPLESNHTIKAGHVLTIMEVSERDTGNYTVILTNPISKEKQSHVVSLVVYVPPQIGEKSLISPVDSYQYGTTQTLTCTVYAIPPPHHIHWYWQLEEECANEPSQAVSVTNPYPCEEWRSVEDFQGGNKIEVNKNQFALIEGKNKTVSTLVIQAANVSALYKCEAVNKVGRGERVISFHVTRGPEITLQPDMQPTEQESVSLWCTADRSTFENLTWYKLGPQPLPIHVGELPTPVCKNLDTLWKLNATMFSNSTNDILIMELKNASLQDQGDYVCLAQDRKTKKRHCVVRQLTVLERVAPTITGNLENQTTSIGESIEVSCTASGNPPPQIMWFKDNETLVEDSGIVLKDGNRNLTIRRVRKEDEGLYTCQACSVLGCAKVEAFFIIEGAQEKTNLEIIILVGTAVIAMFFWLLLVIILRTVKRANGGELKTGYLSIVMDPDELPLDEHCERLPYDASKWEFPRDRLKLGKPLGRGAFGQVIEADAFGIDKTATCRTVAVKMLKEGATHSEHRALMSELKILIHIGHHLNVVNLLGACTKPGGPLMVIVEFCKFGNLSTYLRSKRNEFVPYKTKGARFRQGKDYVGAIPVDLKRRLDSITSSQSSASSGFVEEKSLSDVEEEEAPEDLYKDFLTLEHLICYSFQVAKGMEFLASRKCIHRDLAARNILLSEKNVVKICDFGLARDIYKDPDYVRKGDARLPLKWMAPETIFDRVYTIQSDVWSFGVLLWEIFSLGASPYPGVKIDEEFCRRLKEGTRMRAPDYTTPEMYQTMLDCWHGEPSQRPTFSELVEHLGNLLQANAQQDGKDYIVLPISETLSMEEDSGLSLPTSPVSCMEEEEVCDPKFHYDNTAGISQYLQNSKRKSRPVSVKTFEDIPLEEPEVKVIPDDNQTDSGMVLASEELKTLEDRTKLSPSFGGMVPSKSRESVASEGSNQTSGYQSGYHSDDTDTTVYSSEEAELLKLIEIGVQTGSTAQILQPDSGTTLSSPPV
Experimental: Prepare all the solutions using autoclaved, deionized water and analytical grade reagents. Prepare and store all the reagents at room temperature (unless indicated otherwise). […] The assays used an ULight-labeled peptide substrate and a Europium-W1024-labeled antiphosphotyrosine antibody. The VEGFR-2 was purchased from Carna Biosciences, Inc. (New York, USA). The 384-well plates were obtained from PerkinElmer. […] Negative control: 2.5 μL/well 4×substrate/ATP mixture and 7.5 μL 1×kinase assay buffer in 384-well plate well. […] After incubation at room temperature and dark for 60 min, 5 μL 4×stop solution was added to corresponding wells to react for 5 min and then 5 μL 4×detection mix was added to the corresponding wells of a 384-well plate. The mixture was centrifugally mixed and stayed for 60 min at room temperature for color development. The plate was read using an Envision plate reader. The inhibition rate (%) = (positive well reading-compound well reading)/(positive well reading-negative well reading)×100. The corresponding IC50 values were calculated using GraphPad Prism 5.0.

[4] = test system: four cancer cell lines (A-549, MCF-7, Panc-1, HT-29); assay: Antiproliferative assay, mean over the four cancer cell lines (GI50); format: cell-based, human
Source text: as §1, §2
All cell lines were obtained from ATCC (American Type Cell Culture). […]

[5] = test system: MCF-7 (breast) cancer cell line; assay: Antiproliferative assay, MCF-7; format: cell-based, human; conditions: MCF-7; read-out: Antiproliferative activity IC50 ± SEM, MCF-7
Experimental: as §1, §2, §3, §4

- IC50 (EGFR): 0.087 ± 0.005 µM
- IC50 [1]: 0.041 ± 0.003 µM
- IC50 [2]: 0.042 ± 0.004 µM
- IC50 [3]: 0.042 ± 0.004 µM
- IC50 (VEGFR-2): 0.045 ± 0.003 µM
- Fold less potent than 7k (GI50) ([4]; GI50 ratio to 7k): 1.7 fold
- IC50 ([4]; mean IC50 of A-549, MCF-7, Panc-1, HT-29): 0.042 µM
- IC50 [5]: 0.043 ± 0.003 µM
Substance: (E)-5-(ethylsulfonyl)-N′-(3-methoxybenzylidene)-1H-indazole-3-carbohydrazide [Compound 7l]
- Cell viability % (MCF-10A): 91%
